Tests used:
[1] = tested on: dendritic cells from MMTV-PyMT tumors; assay: DCs (CD11B+; CD11C+) isolated from MMTV-PyMT tumors, treated ex vivo; type: cell-based, mouse
Excerpt: FIG. 3A-3F. DSHN, a tool small molecule agonist of NR0B2 reduces macrophage/dendritic cell induced Treg expansion and tumor growth in murine models. […] (B) Dendritic cells (left-CD11B^+; CD11C^+) and CD4^+ T cells (right) were isolated from MMTV-PyMT tumors by FACS, and treated with vehicle or DSHN for 3d. The resulting frequency of Treg (CD4^+; CD25^+; FoxP3^+) was quantified by flow cytometry (right graph), (N=3-5/group, t test). […] The percentage of divided CD8+ T cells in the second round was quantified. (D) DSHN increases efficacy of αPDL1 therapy on orthotopic E0771 tumors. An optimal number of E0771 cells were grafted into FoxP3-EGFP mice and allowed to grow until tumors reached 100 mm^3. Mice were euthanized on day 19 (waterfall plot, Fisher's exact test). (E) DSHN increases efficacy of αPDL1 therapy on orthotopic 4T1 tumors. 4T1 cells were orthotopically grafted into mice and allowed to establish for 5d prior to treatment start. Mice were euthanized on day 16 (waterfall plot, Fisher's exact test). (F) DSHN reduces metastatic outgrowth of 4T1 tumors and enhances efficacy of αPDL1 compared to placebo (p) (2-way ANOVA followed by Šidák's multiple comparison test for day 16). 4T1 cells were grafted intravenously, and lung metastatic lesions allowed to establish for 3d before treatment commenced. At the end of the study, lungs were removed and imaged ex vivo, quantified data indicated (N=10, 1-way ANOVA followed by Newman-Keuls multiple comparison test). Representative luciferase images shown to the right. * or different letters denote P<0.05 using indicated statistical test.
Since myeloid cells are thought to have been uniquely polarized within the tumor microenvironment, and in order to determine whether DSHN could overcome this, we isolated DCs (CD11B^+; CD11C^+) from MMTV-PyMT tumors. […] Cd4^+ T cells expanded in co-culture with DSHN pre-treated BMDMs had decreased suppressive capacity in terms of secondary CD8+ expansion (FIG. 3C).

E0771 tumors = assay: Survival after orthotopic graft of a suboptimal number of E0771-luc cells; type: in vivo, mouse; conditions: treatment ceased after 18 days
Excerpt: We then evaluated DSHN in a model where a low, suboptimal number of E0771-luc cells were grafted orthotopically. Since NR0B2 was also implicated in regulating myeloid cell expression of PD-L1, we investigated the effect of acute DSHN combined with anti-PD-L1 (αPDL1) treatment on subsequent outgrowth of E0771 tumors. Treatment was ceased after 18 days and mice were monitored through time. […] We next assessed the effects of DSHN combined with αPDL1 on growth of primary tumors (optimal number of cells used to establish graft). […] We then evaluated the ability of DSHN to impact established metastatic disease—a stage that is refractory to standard of care therapy and immune checkpoint blockade. […] In summary, the tool compound DSHN provides proof of principle that the NR0B2-myeloid cell-Treg axis can be targeted for the treatment of breast cancer.

[2] = Low cellular toxicity screen; type: cell-based; design: key: ✓: using strict cutoffs with respect to DSHN for passing each metric; X: using strict cutoffs with respect to DSHN for passing each metric; conditions: pass/fail with respect to DSHN
Excerpt: Development of a more efficacious NR0B2 agonist. While DSHN was a useful proof-of-concept small molecule, macrophages required high doses and chronic exposure for robust influences on subsequent Tregs expansion. […] Therefore, we synthesized several derivatives of DSHN and screened them using a reporter assay which makes use of the endogenous cholesterol homeostatic feedback loop, where FXR activation upregulates NR0B2, which then inhibits LXR and its normal induction of ABCA1. We then followed this screen with several others with stringent cutoffs: effect on endogenous ABCA1 and IL1β expression, reduction of Treg expansion in either macrophage or DC co-cultures, and low cellular toxicity (FIG. 5A, Table 4).
Resazurin cell viability assay. 20,000 cells were seeded into 96 well f-bottom, black plates (Corning Costar) and cell viability was measured using 100 μL resazurin per well at 0.3 mg/mL (Acros Organics). The fluorescence signal was quantified by plate reader (560 nm excitation/590 nm emission) at 2-3 h.

EMT6 metastatic lesions = assay: EMT6 metastatic mammary cancer (intravenous graft); type: in vivo, mouse
Excerpt: FIG. 7A-7I. DSHN-OMe reduces tumor and metastatic growth in murine models, in a myeloid cell-NR0B2 dependent manner. (A) E0771 cells were grafted into control mice (NR0B2^+/+; LysMCre^+) or mice where NR0B2 was knocked out in myeloid immune cells (NR0B2^fl/fl; LysMCre^+). 8 days post-graft, daily treatment with placebo or DSHN-OMe was initiated and subsequent tumor growth followed through time. Different letters denote statistical difference on the final measurement (day 21, 2-Way ANOVA followed by Šidák's post-hoc, N=5-8). (B) Waterfall plot illustration of data in (A) showing tumor volume at final day of measurement. Asterisk indicates significant difference (Chi-squared test, P<0.05). (C) Lewis Lung cells were grafted into control mice (NR0B2^+/+; LysMCre^+) or mice where NR0B2 was knocked out in myeloid immune cells (NR0B2^fl/fl; LysMCre^+). 10 days post-graft, daily treatment with placebo or DSHN-OMe was initiated and subsequent tumor growth followed through time. Different letters denote statistical difference on the final measurement (day 21, 2-Way ANOVA followed by Šidák's post-hoc, N=8-13). (D) Waterfall plot illustration of data in (C) showing tumor volume at final day of measurement. Asterisk indicates significant difference (Chi-squared test, P<0.05). (E) DSHN-OMe is an effective treatment against metastatic 4T1 mammary cancer growth. 4T1 cells were grafted intravenously, and lung metastatic lesions allowed to establish for 3d before treatment commenced. Metastatic burden through time is presented above the metastatic burden on the final day of imaging in the middle panel (N=12-17/group, mixed-effects model followed by Tukey's multiple comparison test). Representative luciferase images in the bottom panel. (F) DSHN-OMe is an effective treatment against metastatic EMT6 mammary cancer growth. EMT6 cells were grafted intravenously, and lung metastatic lesions allowed to establish for 3d. DSHN-OMe was administered on days 4, 5, 8, 9 and 10 post-graft. 11d post-graft lungs were imaged ex vivo for luciferase (N=15/group). (G) EMT6 metastatic lungs were assessed for Ki67 mRNA and (H) FOXP3 mRNA. (I) EMT6 metastatic lungs were assessed for CD8+ cytotoxic T cells (CD8+). Asterisks indicate statistically significant differences.
Metastatic breast cancer urgently requires new therapeutic approaches. Therefore, we tested the ability of DSHN-OMe to reduce the subsequent growth of established metastases. 4T1 cells were introduced intravenously and lesions allowed to establish for 3d. Since ICB has been approved for a subset of TNBC patients, we also included groups treated with αPDL1. […] We confirmed these findings using a different model of murine TNBC, EMT6. […]

CCN(CC)S(=O)(=O)c1cccc2cc(C(=O)O)c(O)cc12 [DSHN, reference compound]
Treg expansion, tumor DCs co-cultured with CD4+ T cells [1]: decreased expansion of Treg cells | PD-L1 positivity of tumor DCs ([1]; cultured with DSHN followed by LPS and IFNγ): decreased PD-L1 positivity | Viability of tumor DCs ([1]; versus vehicle treated DCs from the same tumor): increased viability | Survival of one DSHN-only treated mouse, no palpable tumor (E0771 tumors; post graft): more than 400 days | Survival time, combined with αPDL1 (E0771 tumors; versus placebo): significantly increased survival time

CCN(CC)S(=O)(=O)c1cccc2cc(C(=O)OC)c(O)cc12 [DSHN-OMe, Methyl 5-(N,N-diethylsulfamoyl)-3-hydroxy-2-naphthoate]
Low Toxicity [2]: ✓ | EMT6 metastatic burden (EMT6 metastatic lesions; lungs imaged ex vivo 11 d post-graft): significantly reduced metastatic burden | CD8+ cytotoxic T cells in EMT6 metastatic lungs (EMT6 metastatic lesions; mouse, in vivo): increase in the relative abundance of CD8+ cytotoxic T cells | Foxp3 expression in EMT6 metastatic lungs (EMT6 metastatic lesions; mouse, in vivo): decreased Foxp3 expression | Ki67 mRNA in EMT6 metastatic lungs (EMT6 metastatic lesions; mouse, in vivo): decreased
